Measurements as given in US20180125835A1, “Dosage and Use of an A2A Antagonist” (H. Lundbeck A/S, priority 2014, published 2018).

Legend:
MPTP-lesion marmosets = assay: Disability reversal score in MPTP-lesion marmosets, PK/PD modelling; assay type: in vivo, marmoset; conditions: MPTP-treated marmosets, 0.1-3 mg/kg, Emax PK/PD modelling
Procedure: Marmosets received several MPTP regimens (single MPTP regimen: 2 mg/kg, s.c., per day for 3 consecutive days) before the marmosets were used for PK/PD measurements.
In the absence of any striatal occupancy data in marmoset to relate plasma concentration needed for EC80 A2A occupancy for human dose projection, a daily dose range of 3-24 mg was established based on predicted EC50-80 plasma concentrations of rat striatal occupancy and marmoset disability reversal score.

[1] = PET study, pharmacokinetic assessments; assay type: in vivo; conditions: human, plasma, single oral doses 0.5 to 5 mg
Excerpt: The pharmacokinetic parameters of compound 504 were estimated using non-compartmental analysis.

Question: Which “EC80 plasma concentration for disability reversal score” value (MPTP-lesion marmosets) does the source give for `Cc1ccc(C(=O)Nc2nc(-c3ccco3)c(C(=O)C3CCOCC3)s2)cn1` [Compound 504] here?
Answer: 0.175 µg/mL

Question: What about the Tmax [1] of the same molecule?
Answer: 1 to 2 h
